Data: paper PMC12473906, “Comparing the Altis RepliGut Organoid System to MDCK Monolayers in Predicting the Oral Absorption of Lenalidomide” (Pharmaceutics, 2025)
Entries after “also recorded” stand apart in the source; their conditions may differ.

Key:
P-gp (MDR1) = target: T1, P-gp (MDR1) (Homo sapiens, UniProt P08183); test: Bidirectional permeability in gMDCK cells overexpressing human P-gp (gMDCK-MDR1); assay type: in vitro ADME; conditions: human, MDCK-MDR1, pH 7.4; gMDCK-MDR1
T1 construct: expressed in transfected cells; host or cells: gMDCK (P-gp-knockout Madin-Darby Canine Kidney cells), puromycin selection
Method: (§1) gMDCK cells were maintained in Dulbecco’s Modified Eagle’s Medium (DMEM) supplemented with Gibco’s MEM amino acids solution (1 X), penicillin (100 units/mL), streptomycin ([…]), and 10% fetal bovine serum and in a humidified, 37 °C, 5% CO2 environment as previously described. Efflux transporter-expressing gMDCK cells, gMDCK-P-gp and gMDCK-BCRP, were cultured in the above-mentioned medium with addition of puromycin (2 µg/mL). All cells were passaged at approximately 80% confluency in T-175 flasks. For permeability assays, gMDCK, gMDCK-P-gp, and gMDCK-BCRP cells were seeded on 96 transwell plates (approximately 40,000 cells/well) and allowed to grow for 48 h in a 37 °C, 5% CO2 environment. Digitonin (10–40 mg/L) was included in some experiments to loosen tight junctions to explore paracellular permeability. TEER values were measured on the day of the experiment using an EVOM^TM Auto (World Precision Instruments, Sarasota, FL, USA).
(§2) Lenalidomide dosing solutions (1–500 µM) were diluted from DMSO stock (500 mM) with HEPES-buffered HBSS (with Ca^2+ and Mg^2+, 10 mM HEPES, pH 7.4) + 20 µM Lucifer yellow resulting in a final DMSO content of 0.2%. Lucifer yellow was measured fluorometrically (Ex/Em 428/532 nm) to assess tight junctions/paracellular transport. Permeability of lenalidomide was assessed bidirectionally in both in vitro models over three hours, and cell monolayers were collected at the end of the experiment.
(§3) Briefly, for assessing apical to basolateral (A to B) permeability, 150 uL of lenalidomide dosing solutions was added to apical side of the transwell, and 250 uL of HEPES-buffered HBSS without Lucifer yellow was added to basolateral side. For evaluating basolateral to apical (B to A) permeability, 250 uL of dosing solutions was added to the basolateral side, and 150 uL of HEPES-buffered HBSS without Lucifer yellow was added to the apical side. An amount of 10 µL was sampled from the dosing side of the transwell at the beginning and the end of the experiment. An amount of 25 µL was sampled from the receiver side at 1, 2, and 3 h.
(§4) Apparent permeability (Papp) was calculated according to the following equation: Papp = (dQ/dt)/(A * C), where dQ/dt is the amount of drug that crosses the membrane per unit of time, A is the surface area of the membrane through which the drug is permeating (0.143 cm^2), and C is the initial concentration added to cells. The efflux ratio was calculated according to the following equation:(4) Efflux ratio= Papp basolateral to apical/Papp apical to basolateral

human P-gp = target: T2, human P-gp (Homo sapiens, UniProt P08183); test: as above; assay type: in vitro ADME; conditions: gMDCK P-gp overexpressing cells and organoids
T2 construct: expressed in transfected cells; host or cells: gMDCK (P-gp-knockout Madin-Darby Canine Kidney cells), puromycin selection
Method: as §1, §2, §3, §4

BCRP [1] = target: T3, BCRP (Homo sapiens, UniProt Q9UNQ0); test: Bidirectional permeability in gMDCK cells overexpressing human BCRP (gMDCK-BCRP); assay type: in vitro ADME
T3 construct: expressed in transfected cells; host or cells: gMDCK (P-gp-knockout Madin-Darby Canine Kidney cells), puromycin selection
T3 sequence (Q9UNQ0 1-655): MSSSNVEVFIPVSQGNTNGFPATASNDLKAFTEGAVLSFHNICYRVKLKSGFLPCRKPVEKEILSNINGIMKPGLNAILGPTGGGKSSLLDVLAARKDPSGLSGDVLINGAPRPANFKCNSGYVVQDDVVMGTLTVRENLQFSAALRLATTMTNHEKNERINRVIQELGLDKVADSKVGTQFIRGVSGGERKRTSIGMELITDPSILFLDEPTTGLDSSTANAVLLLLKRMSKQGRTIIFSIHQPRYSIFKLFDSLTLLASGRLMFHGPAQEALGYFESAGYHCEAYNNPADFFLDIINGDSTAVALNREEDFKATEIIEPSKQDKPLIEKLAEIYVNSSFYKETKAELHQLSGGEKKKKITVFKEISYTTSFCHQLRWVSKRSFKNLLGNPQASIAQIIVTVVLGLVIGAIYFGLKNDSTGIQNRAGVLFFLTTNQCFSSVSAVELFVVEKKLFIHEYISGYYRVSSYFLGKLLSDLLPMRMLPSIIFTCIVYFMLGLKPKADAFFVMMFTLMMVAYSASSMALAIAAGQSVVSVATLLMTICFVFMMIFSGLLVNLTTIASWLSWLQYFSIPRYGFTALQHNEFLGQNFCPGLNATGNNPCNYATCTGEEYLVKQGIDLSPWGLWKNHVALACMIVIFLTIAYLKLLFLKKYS
Method: as §1, §2, §3, §4

[2] = cited from earlier work
[3] = cited from earlier work; remark: listed apart in the source
BCRP [4] = tested on: BCRP; parameters: method as in PMID 24627218; conditions: vesicles with BCRP; cited from earlier work
[5] = gMDCK (P-gp knockout MDCK) monolayer permeability assay; conditions: dog, MDCK
gMDCK monolayers = test: as above
[6] = Lenalidomide Permeability in gMDCK Cells, FaSSIF
[7] = Lenalidomide Permeability in gMDCK Cells, FeSSIF
[8] = pH 7.4, Lenalidomide Permeability in gMDCK Cells, 4% BSA in receiver compartment
[9] = pH 7.4, Lenalidomide Permeability in gMDCK Cells, shaking (1000 rpm)
[10] = pH 7.4, Lenalidomide Permeability in gMDCK Cells, typical assay conditions

T2 sequence (P08183 whole entry): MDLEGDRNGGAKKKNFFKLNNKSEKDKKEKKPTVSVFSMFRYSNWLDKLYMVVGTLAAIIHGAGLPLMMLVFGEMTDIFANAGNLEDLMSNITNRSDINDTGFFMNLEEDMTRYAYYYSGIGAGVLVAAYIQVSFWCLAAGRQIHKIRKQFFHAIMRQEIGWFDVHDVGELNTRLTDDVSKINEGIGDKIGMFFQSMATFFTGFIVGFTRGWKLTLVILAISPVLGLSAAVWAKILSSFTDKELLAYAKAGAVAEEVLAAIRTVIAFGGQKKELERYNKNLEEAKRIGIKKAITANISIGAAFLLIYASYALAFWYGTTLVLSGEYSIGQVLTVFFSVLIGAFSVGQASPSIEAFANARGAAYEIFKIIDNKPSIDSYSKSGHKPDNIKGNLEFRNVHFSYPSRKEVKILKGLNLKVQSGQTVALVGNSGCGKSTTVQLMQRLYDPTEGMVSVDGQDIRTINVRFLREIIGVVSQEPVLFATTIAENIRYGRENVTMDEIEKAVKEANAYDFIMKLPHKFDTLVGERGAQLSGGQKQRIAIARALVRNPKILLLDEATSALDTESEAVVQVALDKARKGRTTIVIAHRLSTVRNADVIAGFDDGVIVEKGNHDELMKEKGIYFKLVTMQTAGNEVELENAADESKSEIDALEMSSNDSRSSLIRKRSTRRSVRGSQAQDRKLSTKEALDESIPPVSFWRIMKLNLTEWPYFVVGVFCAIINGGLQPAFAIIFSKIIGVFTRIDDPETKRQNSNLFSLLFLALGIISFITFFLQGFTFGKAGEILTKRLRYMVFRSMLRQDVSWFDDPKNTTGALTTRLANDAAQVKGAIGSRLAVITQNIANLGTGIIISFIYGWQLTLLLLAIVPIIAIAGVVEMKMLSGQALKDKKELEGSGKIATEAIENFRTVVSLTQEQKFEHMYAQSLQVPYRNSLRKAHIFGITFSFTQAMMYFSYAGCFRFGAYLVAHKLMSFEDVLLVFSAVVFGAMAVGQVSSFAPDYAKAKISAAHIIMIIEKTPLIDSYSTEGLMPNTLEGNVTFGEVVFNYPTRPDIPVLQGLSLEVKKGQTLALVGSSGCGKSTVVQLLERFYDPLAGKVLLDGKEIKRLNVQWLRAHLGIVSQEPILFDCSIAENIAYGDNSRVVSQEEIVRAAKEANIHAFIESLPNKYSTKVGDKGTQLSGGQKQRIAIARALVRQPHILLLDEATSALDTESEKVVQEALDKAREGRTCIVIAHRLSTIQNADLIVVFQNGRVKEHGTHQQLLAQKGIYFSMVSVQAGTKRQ
T1 sequence (P08183 whole entry): as above

SMILES: Nc1cccc2c1CN(C1CCC(=O)NC1=O)C2=O (centres unmarked) [Lenalidomide]
- Papp A→B at 3 h (P-gp (MDR1)): 0.2 ×10⁻⁶ cm/s
- Papp B→A at 3 h (P-gp (MDR1)): 2.8 ×10⁻⁶ cm/s
- efflux ratio at 3 h (P-gp (MDR1)): 14
- P-gp substrate (human P-gp): substrate for both transporters; also recorded: substrate of both P-gp and BCRP
- BCRP substrate (BCRP [1]; gMDCK BCRP overexpressing cells and organoids): substrate for both transporters; also recorded: substrate of both P-gp and BCRP
- Papp A→B at 3 h (BCRP [1]; human, pH 7.4, gMDCK-BCRP): 0.15 ×10⁻⁶ cm/s
- Papp B→A at 3 h (BCRP [1]; human, pH 7.4, gMDCK-BCRP): 2.4 ×10⁻⁶ cm/s
- efflux ratio at 3 h (BCRP [1]; human, pH 7.4, gMDCK-BCRP): 16
- LogP (o/w) ([2]; Figure 1, ref PubChem): < 1
- pKa ([2]; lower pKa): 2.3
- LogP ([2]; ref PubChem): −0.40
- Human Fa (fraction absorbed) [3]: 90% [21]
- Elimination half-life ([3]; humans): 3 to 5 h
- Metabolism ([3]; humans): < 5%
- Oral bioavailability ([3]; humans): > 90%
- Route of elimination ([3]; humans): Renal
- BCRP substrate (BCRP [4]): not a BCRP substrate
- Papp at 3 h, 10 µM [5, 6]: 0.27 ×10⁻⁶ cm/s
- Papp at 3 h, 50 µM [5, 6]: 0.28 ×10⁻⁶ cm/s
- Papp at 3 h, 250 µM [5, 6]: 0.17 ×10⁻⁶ cm/s
- Papp at 3 h, 500 µM ([5]; Lenalidomide Permeability in gMDCK Cells, FaSSIF, 500 uM): 0.13 ×10⁻⁶ cm/s
- Papp at 3 h, 10 µM [5, 7]: 0.07 ×10⁻⁶ cm/s
- Papp at 3 h, 50 µM [5, 7]: 0.14 ×10⁻⁶ cm/s
- Papp at 3 h, 250 µM [5, 7]: 0.1 ×10⁻⁶ cm/s
- Papp at 3 h, 500 µM ([5]; Lenalidomide Permeability in gMDCK Cells, FeSSIF, 500 uM): 0.14 ×10⁻⁶ cm/s
- Papp A→B at 3 h ([5]; pH 7.4): 0.21 ×10⁻⁶ cm/s
- Papp B→A at 3 h ([5]; pH 7.4): 0.13 ×10⁻⁶ cm/s
- efflux ratio at 3 h ([5]; pH 7.4): 0.62
- Papp at 3 h, 10 µM [5, 8]: 0.12 ×10⁻⁶ cm/s
- Papp at 3 h, 50 µM [5, 8]: 0.16 ×10⁻⁶ cm/s
- Papp at 3 h, 250 µM [5, 8]: 0.15 ×10⁻⁶ cm/s
- Papp at 3 h, 500 µM ([5]; pH 7.4, Lenalidomide Permeability in gMDCK Cells, 4% BSA in receiver compartment, 500 uM): 0.15 ×10⁻⁶ cm/s
- Papp at 3 h, 10 µM [5, 9]: 0.03 ×10⁻⁶ cm/s
- Papp at 3 h, 50 µM [5, 9]: 0.03 ×10⁻⁶ cm/s
- Papp at 3 h, 250 µM [5, 9]: 0.14 ×10⁻⁶ cm/s
- Papp at 3 h, 500 µM ([5]; pH 7.4, Lenalidomide Permeability in gMDCK Cells, shaking (1000 rpm), 500 uM): 0.21 ×10⁻⁶ cm/s
- Papp at 3 h, 10 µM [5, 10]: 0.19 ×10⁻⁶ cm/s
- Papp at 3 h, 50 µM [5, 10]: 0.22 ×10⁻⁶ cm/s
- Papp at 3 h, 250 µM [5, 10]: 0.24 ×10⁻⁶ cm/s
- Papp at 3 h, 500 µM ([5]; pH 7.4, Lenalidomide Permeability in gMDCK Cells, typical assay conditions, 500 uM): 0.24 ×10⁻⁶ cm/s
- Papp at 3 h ([5]; pH 7.4, apparent permeability (Papp), gMDCK cell monolayers, independent of concentration): ~0.2 ×10⁻⁶ cm/s
- Papp at 3 h, 500 µM ([5]; pH 7.4, gMDCK Papp, lenalidomide 500 µM, apical to basolateral, n=3 biological replicates): 0.21 ×10⁻⁶ cm/s
- effect of 4% bovine serum albumin in the receiver side on apparent permeability (gMDCK monolayers; gMDCK, sink condition): did not increase
- effect of shaking gMDCK cells during the permeability assay on permeability (gMDCK monolayers; shaking transwell plate at 1000 rpm): did not significantly change
